Where “and” joins values, the source holds several entries; their conditions need not be identical. Identical values can stand only once. Like-named read-outs stand apart in the source and are kept apart here.
Legend:
MCF-7 cells = test: MCF-7 cell proliferation, CTG reagent, 6-day treatment, single agents and combination (CompuSyn synergy analysis); format: cell-based
Protocol: The effect of 6-day compound treatment on cell proliferation was measured using CTG reagent.

Z-138 cells = test: Z-138 cell proliferation, CTG reagent, 3-day treatment, single agents and combination (CompuSyn synergy analysis); format: cell-based
Protocol: Z-138 cells were treated with serial dilutions of Compound-44A (CDK7 inhibitor), serial dilutions of venetoclax individually and in combination for 3 days. The effect of 3-day compound treatment on cell proliferation was measured using CTG reagent. Percentage inhibition of cell proliferation in individual (Compound-44A, venetoclax) and combination treatments (Compound-44A+venetoclax) were analyzed using CompuSyn software to assess synergy.

**Q.** What does the source list for CC(C)[C@H](C(=O)Nc1cc(C2CC2)[nH]n1)c1cccc(-c2ccc(NC(=O)/C=C/CN3CCOCC3)nc2)c1 (single isomer, unassigned) [Compound-44A]?
**A.** % Inhibition of proliferation (MCF-7 cells; Compound-44A 0.006272 nM, Day-6): −4.1% and −1.7% and 4.8%; % Inhibition of proliferation (MCF-7 cells; Compound-44A 0.018817 nM, Day-6): 4.6% and 3.8%; % Inhibition of proliferation (MCF-7 cells; Compound-44A 0.056450 nM, Day-6): −11.5% and −2.9% and −2.8%; % Inhibition of proliferation (MCF-7 cells; Compound-44A 4.5725 nM, Day-6): 12.9% and 11.7%; % Inhibition of proliferation (MCF-7 cells; Compound-44A 13.7174 nM, Day-6): 44.3% and 47.5%; % Inhibition of proliferation (MCF-7 cells; Compound-44A 41.1523 nM, Day-6): 75.4% and 75.5%; % Inhibition of proliferation (MCF-7 cells; Compound-44A 123.4568 nM, Day-6): 84%; % Inhibition of proliferation (MCF-7 cells; Compound-44A 370.3704 nM, Day-6): 87.5% and 86.2%; % Inhibition of proliferation (MCF-7 cells; Compound-44A 1111.11 nM, Day-6): 106.1%; % Inhibition of proliferation (MCF-7 cells; Compound-44A 3333.333 nM, Day-6): 106.1% and 106.3%; % Inhibition of proliferation (MCF-7 cells; Compound-44A 10000 nM, Day-6): 106.4% and 106.3%; % Inhibition of proliferation (MCF-7 cells; Compound-44A 30000 nM, Day-6): 112.3%; inhibition at 0.0005 µM (MCF-7 cells; Homo sapiens, MCF7, 144 h, Fulvestrant 0 nM + Compound-44A 0.50 nM, 6 days): 4%; inhibition at 0.0015 µM (MCF-7 cells; Homo sapiens, MCF7, 144 h, Fulvestrant 0 nM + Compound-44A 1.50 nM, 6 days): 4%; inhibition at 0.041 µM (MCF-7 cells; Homo sapiens, MCF7, 144 h, Fulvestrant 0 nM + Compound-44A 41.00 nM, 6 days): 74%; inhibition at 0.123 µM (MCF-7 cells; Homo sapiens, MCF7, 144 h, Fulvestrant 0 nM + Compound-44A 123.00 nM, 6 days): 83%; inhibition at 0.3703 µM (MCF-7 cells; Homo sapiens, MCF7, 144 h, Fulvestrant 0 nM + Compound-44A 370.30 nM, 6 days): 87%; inhibition at 18.82 pM (MCF-7 cells; Homo sapiens, MCF7, Compound-44A 0.018817 nM, Day-6): 2.9%; inhibition at 0.0045725 µM (MCF-7 cells; Homo sapiens, MCF7, Compound-44A 4.5725 nM, Day-6): 13.6%; inhibition at 0.0137174 µM (MCF-7 cells; Homo sapiens, MCF7, Compound-44A 13.7174 nM, Day-6): 48.3%; inhibition at 0.0411523 µM (MCF-7 cells; Homo sapiens, MCF7, Compound-44A 41.1523 nM, Day-6): 71.6%; inhibition at 0.123457 µM (MCF-7 cells; Homo sapiens, MCF7, Compound-44A 123.4568 nM, Day-6): 81.6%; inhibition at 0.37037 µM (MCF-7 cells; Homo sapiens, MCF7, Compound-44A 370.3704 nM, Day-6): 88.5%; inhibition at 1.11111 µM (MCF-7 cells; Homo sapiens, MCF7, Compound-44A 1111.11 nM, Day-6): 105%; inhibition at 3.33333 µM (MCF-7 cells; Homo sapiens, MCF7, Compound-44A 3333.333 nM, Day-6): 106%; inhibition at 10 µM (MCF-7 cells; Homo sapiens, MCF7, Compound-44A 10000 nM, Day-6): 106%; inhibition at 30 µM (MCF-7 cells; Homo sapiens, MCF7, Compound-44A 30000 nM, Day-6): 112%; synergy in inhibiting the proliferation of breast cancer cell line MCF-7 (MCF-7 cells; in combination with fulvestrant): synergy; inhibition of proliferation in MCF-7 cells (MCF-7 cells; single agent, serial dilutions, 6 days): dose dependent inhibition of proliferation; % Inhibition of proliferation (Z-138 cells; Compound-44A 0.0015 μM, Day-3): −1.8% and 3.5%; % Inhibition of proliferation (Z-138 cells; Compound-44A 0.0046 μM, Day-3): 5.8% and 5.6% and −3.4%; % Inhibition of proliferation (Z-138 cells; Compound-44A 0.0412 μM, Day-3): 63.6% and 62.2%; % Inhibition of proliferation (Z-138 cells; Compound-44A 0.1235 μM, Day-3): 72.1% and 74.5%; % Inhibition of proliferation (Z-138 cells; Compound-44A 0.3704 μM, Day-3): 77.2% and 77.3%; % Inhibition of proliferation (Z-138 cells; Compound-44A 1.1111 μM, Day-3): 99.3% and 98.8%; % Inhibition of proliferation (Z-138 cells; Compound-44A 3.3333 μM, Day-3): 99.9%; % Inhibition of proliferation (Z-138 cells; Compound-44A 10.0000 μM, Day-3): 99.9%; inhibition at 0.0015 µM (Z-138 cells; Homo sapiens, Z-138, 72 h, Venetoclax 0.0 μM + Compound-44A 0.0015 μM, 3 days): 2%; inhibition at 0.0412 µM (Z-138 cells; Homo sapiens, Z-138, 72 h, Venetoclax 0.0 μM + Compound-44A 0.0412 μM, 3 days, read-out: % Inhibition in proliferation): 63%; inhibition at 0.1235 µM (Z-138 cells; Homo sapiens, Z-138, 72 h, Venetoclax 0.0 μM + Compound-44A 0.1235 μM, 3 days, read-out: % Inhibition in proliferation): 73%; inhibition at 0.3704 µM (Z-138 cells; Homo sapiens, Z-138, 72 h, Venetoclax 0.0 μM + Compound-44A 0.3704 μM, 3 days, read-out: % Inhibition in proliferation): 77%; inhibition at 1.1111 µM (Z-138 cells; Homo sapiens, Z-138, 72 h, Venetoclax 0.0 μM + Compound-44A 1.1111 μM, 3 days, read-out: % Inhibition in proliferation): 99%; inhibition at 0.0412 µM (Z-138 cells; Homo sapiens, Z-138, Compound-44A 0.0412 μM, Day-3, read-out: % Inhibition of proliferation): 62.1%; inhibition at 0.1235 µM (Z-138 cells; Homo sapiens, Z-138, Compound-44A 0.1235 μM, Day-3, read-out: % Inhibition of proliferation): 72.4%; inhibition at 0.3704 µM (Z-138 cells; Homo sapiens, Z-138, Compound-44A 0.3704 μM, Day-3, read-out: % Inhibition of proliferation): 76.6%; inhibition at 1.1111 µM (Z-138 cells; Homo sapiens, Z-138, Compound-44A 1.1111 μM, Day-3, read-out: % Inhibition of proliferation): 99.4%; inhibition at 3.3333 µM (Z-138 cells; Homo sapiens, Z-138, Compound-44A 3.3333 μM, Day-3): 100%; inhibition at 10 µM (Z-138 cells; Homo sapiens, Z-138, Compound-44A 10.0000 μM, Day-3): 100%; synergy in inhibiting the proliferation of leukemia cancer cell line Z-138 (Z-138 cells; in combination with venetoclax): synergy; inhibition of proliferation in Z-138 cells (Z-138 cells; single agent, serial dilutions, 3 days): dose dependent inhibition of proliferation
